In US20030224525A1, “Enhanced photophysics of conjugated polymers” (The University of Chicago, priority 2002, published 2003):

Experiment: Particle size by dynamic light scattering
Type: physicochemical
Conditions: in solution; complex 1:1 mole ratio, filtered with 100 nanometer filter
Method: More striking results come from fluorescence microscopy of the polymer-surfactant complex (1:1 mole ratio). After filtration with a 100 nanometer filter, the 5×10^−5 M complex solution is perfectly clear and suitable for spectroscopic studies. However, when spread on a glass substrate (microscope slide) with a cover glass, incubated for 10 minutes at room temperature and observed under a 100×oil immerse objective, the polymer-surfactant complex consists of bright, uniform and well-defined nano-sized particles (FIG. 2A). […] The particle size was measured using dynamic light scattering methods. […] As a comparison, the measured particle size in pure MPS-PPV solution is about 9 nm with a broad gaussian distribution; while pure DOTAP solution contains particles ( presumably lipid bilayer assemblies) with a mean diameter of 57 nm, consistent with the literature value. The sizes of the polymer and complex particles are consistent with the results from fluorescence correlation spectroscopic experiments.
Since the spectra in FIG. 1 indicated the possibility of a second complex component in the polymer-surfactant mixture, the solution emission was examined using a shorter excitation wavelength (400 nm). As shown in FIG. 3 (inset A), the solution does container a very low concentration of species emitting at 465 nm. […]

## CCCCCCCC/C=C\CCCCCCCC(=O)OCC(C[N+](C)(C)C)OC(=O)CCCCCCC/C=C\CCCCCCCC.[Cl-] (stereo not shown) [DOTAP, N-[1-(2,3-Dioleoyloxy)propyl]-N,N,N,-trimethylammonium chloride]
  average particle size: 57 nm
